The values below come from US9611258B2, “Dual MEK/PI3K inhibitors and therapeutic methods using the same” (THE REGENTS OF THE UNIVERSITY OF MICHIGAN, priority 2013, dated 2017).

For one test, the target named is PI3K. Put plainly: PI3K lipid kinase activity, Adapta TR-FRET assay with purified enzyme. The conditions noted are these: for IC50: read-out: PI3K inhibition IC50. Format: biochemical. The procedure:
(§1) Quantitation of PI3K lipid kinase activity of a present compound is determined with purified enzyme using the fluorescence-based Adapta™ TR-FRET assay from InVitrogen (Wisconsin, USA). Quantitation of MEK1 kinase activity of a present compound is determined with purified enzyme using the LanthaScreen® displacement binding assay (Tracer 236) from InVitrogen (Wisconsin, USA). Cellular screening is carried in cultured Panc-1 cells treated for 1 hour with varied doses of the test compound. Effects on pERK and pAKT expression are evaluated by immunoblotting using phospho-specific antibodies (pAKT [Ser473] and pERK1/2 [Thr202/Tyr204]) from Cell Signaling Technology.
(§2) In Vitro Biochemical and Cell-Based Assays. Detection of PI3K lipid kinase activity was conducted with purified enzyme using the fluorescence-based Adapta™ TR-FRET assay from Invitrogen (Wisconsin, USA). Detection of the MEK1 kinase activity was conducted with purified enzyme using the LanthaScreen® displacement binding assay (Tracer 236) from Invitrogen (Wisconsin, USA). Evaluation of off-target kinase activity was conducted against the kinase screening panel provided by Invitrogen (Wisconsin, USA).
For orientation: Time-resolved FRET reads energy transfer from a long-lived donor to a nearby acceptor.

Another test addresses T1, EGFR (Homo sapiens, UniProt P00533).
T1 construct: purchased Invitrogen
The test can be described thus: Off-target kinase selectivity panel (Invitrogen). Format: biochemical. The conditions noted are these: read-out: IC50 against EGFR. How it is done: as §2

For a further test, the target named is T2, PKCα (Homo sapiens, UniProt P17252).
T2 construct: purchased Invitrogen
Put plainly: Off-target kinase selectivity panel (Invitrogen). To be noted: read-out: IC50 against PKCα. The test is classed as biochemical. How it is done:
as §2

The next test deals with T3, AurB (Homo sapiens, UniProt Q96GD4).
T3 construct: purchased Invitrogen
Put plainly: Off-target kinase selectivity panel (Invitrogen). Format: biochemical. To be noted: read-out: IC50 against AurB. The procedure: as §2

The next test addresses ERK. The test can be described thus: Off-target kinase selectivity panel (Invitrogen). The test is classed as biochemical. The conditions noted are these: read-out: IC50 against ERK. How it is done:
as §2

For a further test, the system named is PI3K isoforms. Put plainly: PI3K isoform potency. Format: biochemical. The procedure:
as §2

A further test deals with pERK1/2 [Thr202/Tyr204]. Put plainly: Cellular pERK expression by immunoblotting in Panc-1 cells. The test is classed as cell-based. To be noted: Panc-1 cells treated for 1 hour, immunoblot. How it is done:
as §1
(§3) Cells were cultured in Dulbecco's Modified Eagle's Medium (DMEM) and 10% FBS, and grown in a 37° C. incubator with 5% CO2. Cells were plated at 3×10^5 cells/well in 6 well plates, and the following day were treated for 1 hr at 37° C. Cells were lysed in 50 mM Tris, 1% NP-40, 150 mM NaCl, 10% glycerol, 1 mM EDTA with 1× protease inhibitor (complete; Roche Applied Science) and phosphatase inhibitors (PhosSTOP, Roche Applied Science). Protein concentration was determined with a Dc Protein Assay Kit (BioRad). Proteins were resolved by SDS-PAGE and transferred to nitrocellulose membranes. […]
(In general: A western blot detects proteins with antibodies after separation by electrophoresis.)

The test system of a further test is pAKT [Ser473]. The test can be described thus: Cellular pAKT expression by immunoblotting in Panc-1 cells. Format: cell-based. The conditions noted are these: Panc-1 cells treated for 1 hour, immunoblot. The procedure: as §1, §3
A further test addresses MEK1 (Homo sapiens, UniProt Q02750). Put plainly: MEK1 LanthaScreen displacement binding assay (Tracer 236) with purified enzyme. The conditions noted are these: in vitro, read-out: MEK inhibition IC50.

T3 sequence (Q96GD4 whole entry): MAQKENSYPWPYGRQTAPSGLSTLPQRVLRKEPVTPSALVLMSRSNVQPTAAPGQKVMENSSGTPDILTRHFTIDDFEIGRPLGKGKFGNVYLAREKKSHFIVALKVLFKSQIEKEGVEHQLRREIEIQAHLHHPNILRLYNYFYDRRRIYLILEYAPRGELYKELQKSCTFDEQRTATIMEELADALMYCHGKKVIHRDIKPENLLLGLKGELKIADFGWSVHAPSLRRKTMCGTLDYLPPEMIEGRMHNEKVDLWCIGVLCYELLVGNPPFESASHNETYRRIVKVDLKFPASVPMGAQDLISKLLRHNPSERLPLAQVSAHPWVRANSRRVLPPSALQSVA
T1 sequence (P00533 25-1210): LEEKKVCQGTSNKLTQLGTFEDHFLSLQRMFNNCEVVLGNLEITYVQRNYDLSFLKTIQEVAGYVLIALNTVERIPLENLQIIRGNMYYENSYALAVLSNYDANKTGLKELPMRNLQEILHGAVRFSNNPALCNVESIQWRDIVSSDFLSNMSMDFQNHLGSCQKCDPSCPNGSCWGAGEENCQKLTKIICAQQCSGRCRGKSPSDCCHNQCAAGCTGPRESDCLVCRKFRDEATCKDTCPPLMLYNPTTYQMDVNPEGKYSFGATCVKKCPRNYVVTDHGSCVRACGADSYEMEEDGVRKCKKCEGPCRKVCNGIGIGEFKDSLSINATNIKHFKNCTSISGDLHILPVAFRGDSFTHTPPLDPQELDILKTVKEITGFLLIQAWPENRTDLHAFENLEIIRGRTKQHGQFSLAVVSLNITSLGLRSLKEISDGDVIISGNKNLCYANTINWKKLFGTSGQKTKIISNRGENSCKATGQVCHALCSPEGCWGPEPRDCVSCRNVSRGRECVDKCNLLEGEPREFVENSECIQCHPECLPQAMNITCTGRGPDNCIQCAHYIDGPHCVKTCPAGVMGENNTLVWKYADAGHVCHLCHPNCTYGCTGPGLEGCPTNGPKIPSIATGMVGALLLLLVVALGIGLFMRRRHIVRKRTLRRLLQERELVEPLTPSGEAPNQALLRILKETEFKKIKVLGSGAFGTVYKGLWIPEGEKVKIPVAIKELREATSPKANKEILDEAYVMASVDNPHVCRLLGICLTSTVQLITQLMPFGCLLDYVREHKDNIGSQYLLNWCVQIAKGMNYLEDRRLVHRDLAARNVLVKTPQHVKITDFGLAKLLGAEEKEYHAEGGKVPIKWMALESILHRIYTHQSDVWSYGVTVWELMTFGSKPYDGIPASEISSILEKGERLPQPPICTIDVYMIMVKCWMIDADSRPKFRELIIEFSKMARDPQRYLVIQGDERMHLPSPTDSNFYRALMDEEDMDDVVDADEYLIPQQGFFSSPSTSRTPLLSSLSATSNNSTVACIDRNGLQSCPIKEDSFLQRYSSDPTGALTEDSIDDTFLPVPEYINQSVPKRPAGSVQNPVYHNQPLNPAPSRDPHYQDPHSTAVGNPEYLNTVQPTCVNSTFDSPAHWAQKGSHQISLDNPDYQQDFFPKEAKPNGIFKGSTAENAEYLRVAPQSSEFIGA
Sequence of MEK1 (Q02750 whole entry): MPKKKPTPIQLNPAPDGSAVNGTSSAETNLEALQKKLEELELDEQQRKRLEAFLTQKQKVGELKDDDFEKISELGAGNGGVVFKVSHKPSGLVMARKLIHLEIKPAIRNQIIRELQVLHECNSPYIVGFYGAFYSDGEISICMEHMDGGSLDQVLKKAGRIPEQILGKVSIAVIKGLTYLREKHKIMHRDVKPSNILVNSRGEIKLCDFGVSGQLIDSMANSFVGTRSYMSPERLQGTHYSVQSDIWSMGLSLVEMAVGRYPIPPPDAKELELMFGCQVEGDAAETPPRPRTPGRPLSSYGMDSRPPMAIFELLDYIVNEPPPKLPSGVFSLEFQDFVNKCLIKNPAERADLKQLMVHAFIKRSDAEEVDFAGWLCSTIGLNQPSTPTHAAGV

Broadly, the IC50 is the concentration at which inhibition is half-maximal. On to `FC(F)c1nc2ccccc2n1-c1nc(N2CCNCC2)nc(N2CCOCC2)n1` [MV3-42B], for which the IC50 on PI3K (in vitro, purified enzyme) was found to be 0.1 µM.
Consider `O=C(CCCCC[N+](=O)[O-])N1CCN(c2nc(N3CCOCC3)nc(-n3c(C(F)F)nc4ccccc43)n2)CC1` [MV3-44B], for which the “PI3K inhibition IC50” value at PI3K (in vitro, purified enzyme, bound printed without a number) is given as “>μM”.
With `NCCCCCC(=O)N1CCN(c2nc(N3CCOCC3)nc(-n3c(C(F)F)nc4ccccc43)n2)CC1` [MV3-46A], on PI3K (in vitro, purified enzyme), the IC50 is < 0.1 µM. The “improvement in PI3K binding affinity” value in the test on PI3K (nitro group (MV3-44B) converted to amino group) is given as 10 fold.
Turning to `Cc1c(Cc2cccc(N(C)S(=O)(=O)CCCNCCCCCC(=O)N3CCN(c4nc(N5CCOCC5)nc(-n5c(C(F)F)nc6ccccc65)n4)CC3)c2)c(=O)oc2cc(OC(=O)N(C)C)ccc12` [MV3-65A], the IC50 on EGFR was > 10 µM; on PKCα it was > 10 µM; on AurB it was > 10 µM; on ERK, > 10 µM; on PI3K (in vitro, purified enzyme) it was 0.37 µM; on MEK1, 0.501 µM. For the same compound, in the test with PI3K isoforms, the “potency against all of the PI3K isoforms” value was “comparably potent against all of the PI3K isoforms”. In addition, in the test with pERK1/2 [Thr202/Tyr204], the “cellular inhibition of pERK expression” value is “cellular inhibition of both pERK and pAKT expression was observed”. For the same compound, the “cellular inhibition of pAKT expression” value in the test with pAKT [Ser473] is “cellular inhibition of both pERK and pAKT expression was observed”.
